According to US20260034123A1 (Cedilla Therapeutics, Inc., priority 2022, published 2026):

Experiments:
Kuramochi cells RB-KO = assay: IncuCyte Kuramochi cell proliferation assay, RB-KO; type: cell-based; details: 72 hours, cell count, batch mean
Protocol: (§1) IncuCyte® assay was used to measure the effect of disclosed compounds on cell proliferation. Fluorescent microscopy images of cells were taken immediately after compound treatment and 72 hours later. Image analysis software was used to obtain cell counts as a function of compound concentration. Kuramochi cells labeled with mApple-H2B were seeded on 384-well assay-ready plates. Plates were placed in an IncuCyte® (Sartorius) and scanned at 0 and 72 hours. IncuCyte® software was used to count the number of fluorescent nuclei in each well. The fold change in cell count from 0 to 72 hours in wells treated with increasing compounds concentrations (10 pts, 1/2 log dilution, 20 µM top concentration) was normalized to DMSO control wells. The normalized cell counts were fit with dose response curves and a GI50 was calculated.

CDK2/Cyclin E1 = CDK2/Cyclin E1 (Homo sapiens, UniProt P24941); assay: ADP-Glo Luminescent Kinase Assay (CDK2/E1-37C); type: biochemical; details: 0.18 nM CDK2/Cyclin E1, 100 μM ATP, Histone H1, 37° C.; read-out: ADPGLO (CDK2/E1-37C): IC50
Protocol: Inhibition of CDK2/Cyclin E1 activity by the presence of small molecules was evaluated using ADP-Glo Luminescent Kinase Assay (Promega). Activated CDK2/Cyclin E1 was incubated with its substrate Histone H1 (SignalChem H10-54N) in the kinase reaction buffer (100 μM ATP, 50 mM HEPES pH 7.5, 10 mM MgCl2, 1 mM EDTA, 2 mM DTT, 0.01% Brij35, 0.5 mg/mL BSA). Luminescence was recorded with an Envision plate reader (PerkinElmer).
Dose titrations of inhibitors in 100% DMSO were combined with 0.36 nM CDK2/Cyclin E1 in reaction buffer. The mixtures were incubated for 60 minutes at 37° C. before the addition of ATP and Histone H1 substrate to initiate the kinase reaction. The final conditions were 0.18 nM CDK2/Cyclin E1, 100 μM ATP, and […] Histone H1. The reactions were incubated at 37° C. for 90 minutes before being stopped with the addition of ADP-Glo reagent. This mixture was incubated at room temperature for 60 minutes before Kinase Detection Solution is added to generate luminescence. The stopped reactions were analyzed on an Envision plate reader. The conversion ratios were normalized to yield % activity, plotted against compound concentration, and fit to a four-parameter equation to determine the IC50 for each compound.

Kuramochi cells RB-WT = assay: IncuCyte Kuramochi cell proliferation assay, RB-WT; type: cell-based; details: 72 hours, cell count
Protocol: as §1

| Structure (SMILES) | IC50 (Kuramochi cells RB-KO) | IC50 (CDK2/Cyclin E1) | IC50 (Kuramochi cells RB-WT) |
| --- | --- | --- | --- |
| O=C(O)c1c(COC[C@@H]2CN(C(=O)c3cnn(Cc4ccc(Cl)cc4F)c3)CC23CN(C(=O)C2(C(F)(F)F)CC2)C3)cccc1C1CCC(C(F)(F)F)CC1 (stereo in doubt) [Compound I-71, 2-(((6-(1-(4-chloro-2-fluorobenzyl)-1H-pyrazole-4-carbonyl)-2-(1-(trifluoromethyl)cyclopropane-1-carbonyl)-2,6-diazaspiro[3.4]octan-8-yl)methoxy)methyl)-6-(4-(trifluoromethyl)cyclohexyl)benzoic acid] | > 10 µM | ≤ 0.5 µM | > 10 µM |
| O=C(O)c1ccccc1-c1c(COC[C@@H]2CN(C(=O)c3cnn(Cc4ccc(F)cc4)c3)CC23CN(C(=O)C2(C(F)(F)F)CC2)C3)cccc1C1CCC(C(F)(F)F)CC1 (stereo in doubt) [Compound I-104, 2′-(((6-(1-(4-fluorobenzyl)-1H-pyrazole-4-carbonyl)-2-(1-(trifluoromethyl)cyclopropanecarbonyl)-2,6-diazaspiro[3.4]octan-8-yl)methoxy)methyl)-6′-(4-(trifluoromethyl)cyclohexyl)-[1,1′-biphenyl]-2-carboxylic acid] | 5 to 10 µM | ≤ 0.5 µM | 0.5 to 5 µM |
| O=C(O)c1ccccc1Cn1cc(C(=O)N2C[C@@H](COCc3cccc(C4CCC(C(F)(F)F)CC4)c3)C3(C2)CN(C(=O)C2(C(F)(F)F)CC2)C3)cn1 (stereo in doubt) [Compound I-113, 2-((4-(8-(((3-(4-(trifluoromethyl)cyclohexyl)benzyl)oxy)methyl)-2-(1-(trifluoromethyl)cyclopropane-1-carbonyl)-2,6-diazaspiro[3.4]octane-6-carbonyl)-1H-pyrazol-1-yl)methyl)benzoic acid] | > 10 µM | 0.5 to 5 µM | > 10 µM |
| O=C(O)c1ccccc1Cn1cc(C(=O)N2C[C@@H](COCc3cccc(C4CCC(C(F)(F)F)CC4)c3F)C3(C2)CN(C(=O)C2(C(F)(F)F)CC2)C3)cn1 (stereo in doubt) [Compound I-115, 2-((4-(8-(((2-fluoro-3-(4-(trifluoromethyl)cyclohexyl)benzyl)oxy)methyl)-2-(1-(trifluoromethyl)cyclopropane-1-carbonyl)-2,6-diazaspiro[3.4]octane-6-carbonyl)-1H-pyrazol-1-yl)methyl)benzoic acid] | > 10 µM | ≤ 0.5 µM | > 10 µM |
| O=C(O)c1c(COCC2CN(c3cc(F)cc4ncsc34)CC23CN(C(=O)C2(C(F)(F)F)CC2)C3)cccc1C1CCC(C(F)(F)F)CC1 (stereo not drawn) [Compound I-61, 2-(((6-(5-fluorobenzo[d]thiazol-7-yl)-2-(1-(trifluoromethyl)cyclopropane-1-carbonyl)-2,6-diazaspiro[3.4]octan-8-yl)methoxy)methyl)-6-(4-(trifluoromethyl)cyclohexyl)benzoic acid] | – | > 10 µM | > 10 µM |
| O=C(O)C(=CC1CN(C(=O)c2cnn(Cc3ccc(C(F)(F)F)cc3)c2)CC12CN(C(=O)C1(C(F)(F)F)CC1)C2)Cc1cccc(-c2ccc(C(F)(F)F)cc2)n1 (stereo not drawn) [Compound I-62, 3-(6-(1-(4-(Trifluoromethyl)benzyl)-1H-pyrazole-4-carbonyl)-2-(1-(trifluoromethyl)cyclopropane-1-carbonyl)-2,6-diazaspiro[3.4]octan-8-yl)-2-((6-(4-(trifluoromethyl)phenyl)pyridin-2-yl)methyl)acrylic acid] | – | > 10 µM | > 10 µM |
| O=C(O)C(=CC1CN(C(=O)c2cnc(O)cn2)CC12CN(C(=O)C1(C(F)(F)F)CC1)C2)Cc1cccc(-c2ccc(C(F)(F)F)cc2)n1 (stereo not drawn) [Compound I-63, 3-(6-(5-hydroxypyrazine-2-carbonyl)-2-(1-(trifluoromethyl)cyclopropane-1-carbonyl)-2,6-diazaspiro[3.4]octan-8-yl)-2-((6-(4-(trifluoromethyl)phenyl)pyridin-2-yl)methyl)acrylic acid] | – | > 10 µM | > 10 µM |
| CS(=O)(=O)NC(=O)c1c(COC[C@@H]2CN(C(=O)c3cnn(Cc4ccc(C(F)(F)F)cc4)c3)CC23CN(C(=O)C2(C(F)(F)F)CC2)C3)cccc1C1CCC(C(F)(F)F)CC1 (stereo partly drawn) [Compound I-68] | > 10 µM | 0.5 to 5 µM | > 10 µM |
| O=C(c1cnn(Cc2ccc(C(F)(F)F)cc2)c1)N1C[C@@H](COCc2cccc(C3CCC(C(F)(F)F)CC3)c2-c2nn[nH]n2)C2(C1)CN(C(=O)C1(C(F)(F)F)CC1)C2 (stereo partly drawn) [Compound I-69] | > 10 µM | ≤ 0.5 µM | > 10 µM |
| O=C(O)c1c(COC[C@@H]2CN(C(=O)c3cnn(Cc4ccc(C(F)(F)F)cc4)c3)CC23CN(C(=O)C2(C(F)(F)F)CC2)C3)cccc1N1CCC(C(F)(F)F)CC1 [Compound I-72] | > 10 µM | 0.5 to 5 µM | > 10 µM |
| O=C(O)c1c(COC[C@@H]2CN(C(=O)c3c[nH]nc3Cc3ccccc3)CC23CN(C(=O)C2(C(F)(F)F)CC2)C3)cccc1C1CCC(C(F)(F)F)CC1 (stereo partly drawn) [Compound I-73] | > 10 µM | 0.5 to 5 µM | > 10 µM |
| O=C(O)c1c(COC[C@@H]2CN(C(=O)c3cnn(Cc4ccc(F)cc4C(F)(F)F)c3)CC23CN(C(=O)C2(C(F)(F)F)CC2)C3)cccc1C1CCC(C(F)(F)F)CC1 (stereo partly drawn) [Compound I-76] | > 10 µM | ≤ 0.5 µM | 5 to 10 µM |
| C[C@@H](c1ccc(F)cc1)n1cc(C(=O)N2CC(COCc3cccc(C4CCC(C(F)(F)F)CC4)c3C(=O)O)C3(C2)CN(C(=O)C2(C(F)(F)F)CC2)C3)cn1 (stereo partly drawn) [Compound I-77] | > 10 µM | 0.5 to 5 µM | > 10 µM |
| C[C@H](c1ccc(F)cc1)n1cc(C(=O)N2CC(COCc3cccc(C4CCC(C(F)(F)F)CC4)c3C(=O)O)C3(C2)CN(C(=O)C2(C(F)(F)F)CC2)C3)cn1 (stereo partly drawn) [Compound I-78] | > 10 µM | 0.5 to 5 µM | > 10 µM |
| CC1(C)C[C@@H]1C(=O)N1CC2(CN(C(=O)c3cnn(Cc4ccc(F)cc4)c3)CC2COCc2cccc(C3CCC(C(F)(F)F)CC3)c2C(=O)NS(C)(=O)=O)C1 (stereo partly drawn) [Compound I-86, 2-(((2-((S)-2,2-dimethylcyclopropane-1-carbonyl)-6-(1-(4-fluorobenzyl)-1H-pyrazole-4-carbonyl)-2,6-diazaspiro[3.4]octan-8-yl)methoxy)methyl)-N-(methylsulfonyl)-6-(4-(trifluoromethyl)cyclohexyl)benzamide] | 0.5 to 5 µM | ≤ 0.5 µM | 0.5 to 5 µM |
| CC1(C)C[C@@H]1C(=O)N1CC2(CN(C(=O)c3cnn(Cc4ccc(F)cc4)c3)CC2COCc2cccc(C3CCC4(CCC4)CC3)c2C(=O)O)C1 (stereo partly drawn) [Compound I-88, 2-(((2-((S)-2,2-dimethylcyclopropane-1-carbonyl)-6-(1-(4-fluorobenzyl)-1H-pyrazole-4-carbonyl)-2,6-diazaspiro[3.4]octan-8-yl)methoxy)methyl)-6-(spiro[3.5]nonan-7-yl)benzoic acid] | > 10 µM | ≤ 0.5 µM | 0.5 to 5 µM |
| CC1(C(=O)N2CC3(CN(C(=O)c4cnn(Cc5ccc(F)cc5)c4)C[C@H]3COCc3cccc(C4CCC(C(F)(F)F)CC4)c3C(=O)O)C2)CCO1 (stereo partly drawn) [Compound I-93, 2-((((8S)-6-(1-(4-fluorobenzyl)-1H-pyrazole-4-carbonyl)-2-(2-methyloxetane-2-carbonyl)-2,6-diazaspiro[3.4]octan-8-yl)methoxy)methyl)-6-(4-(trifluoromethyl)cyclohexyl)benzoic acid] | > 10 µM | 0.5 to 5 µM | > 10 µM |
| CC(C)(C(=O)N1CC2(CN(C(=O)c3cnn(Cc4ccc(F)cc4)c3)C[C@H]2COCc2cccc(C3CCC(C(F)(F)F)CC3)c2C(=O)O)C1)C(F)(F)F (stereo partly drawn) [Compound I-94, (S)-2-(((6-(1-(4-fluorobenzyl)-1H-pyrazole-4-carbonyl)-2-(3,3,3-trifluoro-2,2-dimethylpropanoyl)-2,6-diazaspiro[3.4]octan-8-yl)methoxy)methyl)-6-(4-(trifluoromethyl)cyclohexyl)benzoic acid] | > 10 µM | ≤ 0.5 µM | 0.5 to 5 µM |
| O=C(O)c1c(COC[C@@H]2CN(C(=O)c3cnn(Cc4ccc(F)cc4)c3)CC23CN(C(=O)C2(C(F)(F)F)CCC2)C3)cccc1C1CCC(C(F)(F)F)CC1 (stereo partly drawn) [Compound I-95, (S)-2-(((6-(1-(4-fluorobenzyl)-1H-pyrazole-4-carbonyl)-2-(1-(trifluoromethyl)cyclobutanecarbonyl)-2,6-diazaspiro[3.4]octan-8-yl)methoxy)methyl)-6-(4-(trifluoromethyl)cyclohexyl)benzoic acid] | > 10 µM | ≤ 0.5 µM | 0.5 to 5 µM |
| O=C(O)c1c(COC[C@@H]2CN(C(=O)c3cnn(Cc4ccc(F)cc4)c3)CC23CN(C(=O)C2CCO2)C3)cccc1C1CCC(C(F)(F)F)CC1 (stereo partly drawn) [Compound I-96] | > 10 µM | 0.5 to 5 µM | > 10 µM |
